Assay results as given in US6969712B2, “Benzimidazole derivatives” (Banyu Pharmaceutical Co., Ltd., priority 2000, dated 2005).
Structures can show the parent of a compound that is named as a salt.

Key:
nociceptin receptor ORL1 [1] = target: T1, nociceptin receptor ORL1 (Homo sapiens, UniProt P41146); assay: Nociceptin receptor binding inhibition assay; details: inhibition of 50 pM [125I]Tyr14-Nociceptin binding to CHO/ORL1 cell membrane, SPA beads, 37° C., 60 minutes; read-out: IC50 value, nociceptin receptor binding inhibition action
T1 construct: expressed in transfected cells
T1 sequence (P41146 whole entry): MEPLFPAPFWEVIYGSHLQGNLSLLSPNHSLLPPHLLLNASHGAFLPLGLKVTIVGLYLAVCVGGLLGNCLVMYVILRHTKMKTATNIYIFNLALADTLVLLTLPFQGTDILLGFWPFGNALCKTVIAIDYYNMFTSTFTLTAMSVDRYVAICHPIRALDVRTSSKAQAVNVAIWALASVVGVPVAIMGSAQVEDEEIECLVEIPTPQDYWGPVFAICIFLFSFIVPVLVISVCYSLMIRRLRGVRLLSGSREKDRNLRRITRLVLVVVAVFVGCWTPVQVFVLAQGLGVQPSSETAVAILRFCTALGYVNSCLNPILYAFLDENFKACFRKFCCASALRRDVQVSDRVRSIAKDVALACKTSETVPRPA
Method: cDNA which codes a human nociceptin receptor gene (accession No.X77130) was cloned into an expression vector pCR3 (Invitrogen) to prepare pCR3/ORL1. Next, pCR3/ORL1 was transfected in CHO cells using a transfectam (Nippongene) following the directions in the manual appended to the reagent to obtain a stable expression strain (CHO/ORL1 cells) having resistance against 1 mg/ml concentration G418. A membrane fraction (a precipitate fraction obtained by an hour's centrifuge at 100,000 G of the supernatant resulting from 15 minutes' certrifuge at 10,000 G) was prepared from this stable expression strain to carry out a receptor binding assay.
Eleven (11) μg of the membrane, 50 pM [^125I] Tyr^14-Nociceptin (Amersham Pharmacia Biotech) (specific activity 2000 Ci/mmol), 1 mg Wheatgerm agglutinin SPA beads (PVT based; Amersham Pharmacia Biotech) and a test compound were suspended in an NC buffer (50 mM Hepes, 10 mM sodium chloride, 1 mM magnesium chloride, 2.5 mM calcium chloride, 0.1% BSA, 0.025% bacitracin, pH 7.4) and incubated at 37° C. for 60 minutes, and then the radioactivity was determined with Top Count (Packard). The binding activity to the nociceptin receptor was expressed by the 50% inhibition concentration (IC50 value) which was calculated from the inhibition activity to binding to ORL1 receptor of [^125I] Tyr^14-Nociceptin by the compounds of the present invention at various concentrations.

nociceptin receptor ORL1 [2] = target: T1, nociceptin receptor ORL1; assay: Antagonism against nociceptin-elicited G protein activation (GTPγ[35S] binding); assay type: biochemical; details: GTPγ[35S] binding inhibition, CHO/ORL1 cell membrane, 50 nM nociceptin, 25° C., 150 minutes
Method: CHO cells which stably expressed a nociceptin receptor ORL1 were used to investigate the action of tested compounds against nociceptin-elicited G protein activation. A membrane prepared from the CHO/ORL1 cell, 50 nM nociceptin, 200 pM GTPγ[^35S](NEN), 1.5 mg Wheatgerm agglutinin SPA beads (PVT based; Amersham Pharmacia Biotech) and each of the tested compounds were mixed in a GDP buffer (20 mM Hepes, 100 mM sodium chloride, 10 mM magnesium chloride, 1 mM EDTA, 5 μM GDP, pH 7.4) and incubated at 25° C. for 150 minutes, and then the radioactivity was determined. The antagonism against nociceptin-elicited G protein activation was shown by the 50% inhibition concentration (IC50 value) which was calculated from GTP γ [^35S] binding inhibition activity of the compounds of the present invention at various concentrations. From the result it can be understood that the compounds of the invention have antagonism against nociceptin-elicited G protein activation via ORL1 receptor.

Row | SMILES | IC50 (nociceptin receptor ORL1 [1]) | IC50 (nociceptin receptor ORL1 [2])
1 | CCCC(CC)Nc1nc2cc(N3CCNCC3)c(Cl)cc2[nH]1 (centres unmarked) [Referential Example 13, 5-chloro-2-[(1-ethylbutyl)amino]-6-(piperazin-1-yl)-benzimidazole dihydrochloride] | 430 nM | 
2 | CC(CC(C)(C)C)Sc1nc2cc(N3CCNCC3)c(Cl)cc2[nH]1 (centres unmarked) [Example 26, 5-chloro-6-(piperazin-1-yl)-2-[(1,3,3-trimethylbutyl)-sulfanyl]benzimidazole dihydrochloride] | 1.3 nM | 5.3 nM
3 | CCC(CC)COc1nc2cc(N3CCNCC3)c(Cl)cc2[nH]1 [Referential Example 1, 5-chloro-2-[(2-ethylbutyl)oxy]-6-(piperazin-1-yl)benzimidazole dihydrochloride] | 7 nM | 180 nM
4 | CC1(Sc2nc3c(F)c(N4CCN(CCO)CC4)c(Cl)cc3[nH]2)CCCC1 [Example 142, 5-chloro-7-fluoro-6-[4-(2-hydroxyethyl)piperazin-1-yl]-2-[(1-methylcyclopentyl)sulfanyl]benzimidazole] | 0.95 nM | 0.57 nM
5 | CCC(CC)Sc1nc2cc(Cl)c(N3CCN(CCO)CC3)cc2[nH]1 [Example 89, 5-chloro-2-[(1-ethylpropyl)sulfanyl]-6-[4-(2-hydroxyethyl)piperazin-1-yl]benzimidazole dihydrochloride] | 6.5 nM | 6.8 nM
6 | Clc1cc2[nH]c(SCC3CCCCC3)nc2cc1N1CCN(CC2CC2)CC1 [Example 102, 5-chloro-2-[(cyclohexylmethyl)sulfanyl]-6-[4-(cyclopropylmethyl)piperazin-1-yl]benzimidazole] | 3.5 nM | 
7 | CC(C)(CN1CCOCC1)Sc1nc2cc(N3CCN(CCO)CC3)c(Cl)cc2[nH]1 [Example 101, 5-chloro-2-[(1,1-dimethyl-2-morpholinoethyl)sulfanyl]-6-[4-(2-hydroxyethyl)piperazin-1-yl]benzimidazole trihydrochloride] | 9.2 nM | 8 nM
8 | CCC(CC)Sc1nc2cc(Cl)c(N3CCNCC3)cc2[nH]1 [Example 1, 5-chloro-2-[(1-ethylpropyl)sulfanyl]-6-(piperazin-1-yl) benzimidazole dihydrochloride] | 2.1 nM | 9.1 nM
